Laboratory results: US20220396604A1, “COMPOSITIONS COMPRISING MODIFIED SMARCB1 AND USES THEREOF” (Dana-Farber Cancer Institute, Inc., priority 2019, published 2022)

System: mononucleosomes
Assay: LANA peptide competition
Format: binding
Experimental: The LANA peptide competition was set up in a similar manner as the peptide pull-down experiments with the following exceptions: SMARCB1-CC (aa 351-385) biotin-labeled peptides at 10 μM in EB150 were bound to Streptavidin Dynabeads® (Pierce™ Streptavidin Magnetic Beads, Thermo Scientific) in parallel to […] of mononucleosomes incubated with LANA peptide (KE Biochem) at varying concentrations ranging from 0-30 μM overnight at 4° C. Beads were washed 3 times in EB150, and resuspended with the mononucleosome/LANA peptide solutions. The suspension was rotated for 3-5 hours at 4° C. The beads were washed 3-5 times in EB150, and eluted in Sample Buffer (2×LDS with 200 mM DTT) to load onto […] Tricine gels.

MAPPGMRLRSGRSTGAPLTRGSC [LANA Peptide] was tested, and the “antagonism of SMARCB1 CC domain-nucleosome interaction in competition experiments” value was “only partially antagonized” and the “changes in SMARCB1 C-terminal domain peptide-nucleosome binding in LANA peptide competition” value (1-20 uM concentration gradient, visualization of H3) was “minimal changes”.
